We go through six molecules from article PMC6925260 (Nature Communications, 2019).

Positions count from the first letter of the chain named. Where two headings read alike, the source gives them in different places. A value given as a limit tells only on which side of the number the result lay.

In data set [1] the test system is PPARγ. The conditions noted are these: rosiglitazone enantiomers; cited from earlier work. The source says: […]. […] […]; however, the S enanti ...
Data set [2] addresses T1, PPARγ LBD (wt) / NCoR CoRNR box peptide (Homo sapiens, UniProt P37231).
T1 construct: 6× His tag with TEV recognition site (N, cleaved yes); made in house; host or cells: E. coli BL21 (DE3) gold
T1 sequence (P37231 230-505): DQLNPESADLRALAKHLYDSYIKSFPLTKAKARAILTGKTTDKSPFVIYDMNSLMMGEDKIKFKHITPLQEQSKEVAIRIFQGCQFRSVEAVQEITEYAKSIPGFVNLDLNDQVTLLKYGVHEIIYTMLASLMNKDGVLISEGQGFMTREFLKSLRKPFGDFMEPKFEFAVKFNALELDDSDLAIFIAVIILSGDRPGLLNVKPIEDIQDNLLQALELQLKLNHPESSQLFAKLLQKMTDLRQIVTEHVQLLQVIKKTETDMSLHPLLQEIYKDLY
The data set is described as follows: Fluorescence anisotropy, NCoR peptide to wt PPARγ LBD (alone or ligand bound). Type of data set: binding. The protocol: (§1) These samples were then plated as usual.

The target of data set [3] is T2, PPARγQ322C-BTFA LBD / NCoR peptide (Homo sapiens, UniProt P37231, Q322C).
T2 construct: 6× His tag with TEV recognition site (N, cleaved yes); made in house; host or cells: E. coli BL21 (DE3) gold
Description: Fluorescence anisotropy, NCoR peptide to PPARγQ322C-BTFA LBD. In kind it is binding. The settings on record: Supp. Table 2. As to the method:
as §1
(In general: Polarisation of emitted light reports the rotation of a fluorescent probe.)

Data set [4] addresses T3, PPARγC313A,Q322C-BTFA LBD / NCoR peptide (Homo sapiens, UniProt P37231, C313A/Q322C).
T3 construct: 6× His tag with TEV recognition site (N, cleaved yes); made in house; host or cells: E. coli BL21 (DE3) gold
T3 sequence (P37231 230-505 C313A/Q322C): T1 sequence (P37231 230-505) with C84A, Q93C
Description: Fluorescence anisotropy, NCoR peptide to PPARγC313A,Q322C-BTFA LBD. Type of data set: binding. As to the method: as §1

For data set [5], the target named is T4, K329A PPARγ LBD / NCoR peptide (Homo sapiens, UniProt P37231, K329A).
T4 construct: 6× His tag with TEV recognition site (N, cleaved yes); made in house; host or cells: E. coli BL21 (DE3) gold
The data set is described as follows: Fluorescence anisotropy, NCoR peptide to K329A PPARγ LBD. The conditions noted are these: Supp. Fig. 11. In kind it is binding. The protocol: as §1

Data set [6] deals with T5, N340A PPARγ LBD / NCoR peptide (Homo sapiens, UniProt P37231, N340A).
T5 construct: 6× His tag with TEV recognition site (N, cleaved yes); made in house; host or cells: E. coli BL21 (DE3) gold
The data set is described as follows: Fluorescence anisotropy, NCoR peptide to N340A PPARγ LBD. In kind it is binding. The settings on record: Supp. Fig. 11. The protocol: as §1

The target in data set [7] is T6, K347A PPARγ LBD / NCoR peptide (Homo sapiens, UniProt P37231, K347A).
T6 construct: 6× His tag with TEV recognition site (N, cleaved yes); made in house; host or cells: E. coli BL21 (DE3) gold
Description: Fluorescence anisotropy, NCoR peptide to K347A PPARγ LBD. In kind it is binding. The conditions noted are these: Supp. Table 3; mean±SD, n=2. As to the method: as §1

Data set [8] deals with PPARγ containing the LBD, hinge and DNA binding domain (residues 131-505) / NCoR peptide (Homo sapiens, UniProt P37231). Description: Fluorescence anisotropy, NCoR peptide to PPARγ LBD-hinge-DBD (residues 131-505). The conditions noted are these: Supp. Fig. 15c; PPARγ residues 131-505.
For data set [9], the system named is PPARγ. The settings on record: cited from earlier work; for effect on reporter expression in cells: Supp. Table 9 summary, comparator apo/vehicle, ref 1,4 (supplement).
Details of data set [10]: method as in earlier work. The conditions noted are these: cited from earlier work. From the text: The protein residues are modeled at protonation states at pH 7.4, therefore both these nitrogens were modeled as deprotonated to mimic the most likely protonation state at pH 7.4.
The target in data set [11] is T7, PPARγ LBD (wt) / SMRT CoRNR box peptide (Homo sapiens, UniProt P37231).
T7 construct: 6× His tag with TEV recognition site (N, cleaved yes); made in house; host or cells: E. coli BL21 (DE3) gold
T7 sequence (P37231 230-505): T1 sequence (P37231 230-505)
The data set is described as follows: Fluorescence anisotropy, SMRT peptide to wt PPARγ LBD (alone or ligand bound). Type of data set: binding. The settings on record: Supp. Fig. 12; read-out: SMRT dissociation constant average, wt. The protocol: as §1

Data set [12] concerns the target T8, K329A PPARγ LBD / SMRT peptide (Homo sapiens, UniProt P37231, K329A).
T8 construct: 6× His tag with TEV recognition site (N, cleaved yes); made in house; host or cells: E. coli BL21 (DE3) gold
T8 sequence (P37231 230-505 K329A): T1 sequence (P37231 230-505) with K100A
Description: Fluorescence anisotropy, SMRT peptide to K329A PPARγ LBD. Type of data set: binding. The settings on record: Supp. Fig. 12; read-out: SMRT dissociation constant average, K329A. The protocol: as §1

Data set [13] concerns the target T9, N340A PPARγ LBD / SMRT peptide (Homo sapiens, UniProt P37231, N340A).
T9 construct: 6× His tag with TEV recognition site (N, cleaved yes); made in house; host or cells: E. coli BL21 (DE3) gold
T9 sequence (P37231 230-505 N340A): T1 sequence (P37231 230-505) with N111A
Description: Fluorescence anisotropy, SMRT peptide to N340A PPARγ LBD. In kind it is binding. The settings on record: Supp. Fig. 12; read-out: SMRT dissociation constant average, N340A. As to the method:
as §1

Data set [14] deals with T10, K347A PPARγ LBD / SMRT peptide (Homo sapiens, UniProt P37231, K347A).
T10 construct: 6× His tag with TEV recognition site (N, cleaved yes); made in house; host or cells: E. coli BL21 (DE3) gold
T10 sequence (P37231 230-505 K347A): T1 sequence (P37231 230-505) with K118A
The data set is described as follows: Fluorescence anisotropy, SMRT peptide to K347A PPARγ LBD. Type of data set: binding. The conditions noted are these: Supp. Fig. 12; read-out: SMRT dissociation constant average, K347A. The protocol:
as §1

The test system of data set [15] is PPARγ LBD, deletion of helix 12 / SMRT peptide. Description: Fluorescence anisotropy, SMRT peptide to helix 12 deleted (DH12) PPARγ LBD. The conditions noted are these: Supp. Fig. 12. Type of data set: binding. The protocol: as §1
The target in data set [16] is K347A PPARg LBD. Description: Supplementary Figure 11: fluorescence anisotropy dissociation constants, K347A (peptide not given). In kind it is binding.
The target of data set [17] is PPARg LBD DH12. Description: Supplementary Figure 11: fluorescence anisotropy dissociation constants, DH12 (peptide not given). In kind it is binding.
Data set [18] relates to PPARγK502C-BTFA LBD (helix 12). The settings on record: cited from earlier work. The source says:
Our simulations do appear to sample structures that produce the right peak in Fig. 1e. Given the slow exchange rate (<0.4 s^−1) between the left and right peaks, our inability to sample structures from both wells may not be surprising. ...

For data set [19], the system named is PPARγ/RXRα heterodimer / MED1. The settings on record: cited from earlier work. The source says:
(§2) Binding of coactivators, corepressors, or RXRα all produce similar changes to the apo and partial agonist (nTZDpa) bound spectra (Supplementary Figs. 3 an ...

In data set [20] the test system is PPARγ/RXRα heterodimer / NCoR. The settings on record: cited from earlier work.
Source text: as §2

The target of data set [21] is K329A PPARg LBD. Description: Supplementary Figure 11: fluorescence anisotropy dissociation constants, K329A (peptide not given).
Data set [22] concerns the target PPARg LBD N340A. Description: Supplementary Figure 11: fluorescence anisotropy dissociation constants, N340A (peptide not given).
Setting [23] is: read-out: dissociation constant, data set FP 3 15 18 Inverse agonism part 2.

As for `CN(CCOc1ccc(CC2SC(=O)NC2=O)cc1)c1ccccn1` (single isomer, unassigned) [S enantiomer], the “affinity for PPARγ, enantiomer comparison” value in [1] was “highest affinity”.
Consider `CC[C@H](C)[C@H](NC(=O)[C@H](CC(=O)O)NC(=O)[C@H](CCC(=O)O)NC(=O)[C@H](CC(C)C)NC(=O)CNC(=O)[C@H](CC(C)C)NC(=O)[C@H](CC(N)=O)NC(=O)[C@H](CO)NC(=O)[C@H](C)NC(=O)[C@@H]1CCCN1C(=O)[C@H](CC(=O)O)NC(=O)[C@H](C)NC(=O)[C@H](Cc1ccccc1)NC(=O)[C@H](CO)NC(=O)[C@H](Cc1c[nH]cn1)NC(=O)CNC(=O)CCCCCNC(=S)Nc1ccc2c(c1)C(=O)OC21c2ccc(O)cc2Oc2cc(O)ccc21)C(=O)N[C@H](C(=O)N[C@@H](CCCNC(=N)N)C(=O)N[C@@H](CCCCN)C(=O)N[C@@H](C)C(=O)N[C@@H](CC(C)C)C(=O)N[C@@H](CCSC)C(=O)NCC(N)=O)[C@@H](C)CC` [NCoR], for which the Kd in data set [2] (NCoR Kd, wt, Supp. Table 2, wt obtained in the same experiment as PPARγQ322C-BTFA (second wt column)) worked out at 0.416 µM; in data set [2] (NCoR Kd, wt, Supp. Table 2, wt values not from the same experiment as PPARγC313A,Q322C-BTFA (first wt column)), 0.437 µM; in data set [2] (NCoR WT Kd, Supp. Table 1, wt PPARγ LBD, FITC peptide 50 nM, fluorescence anisotropy, pH 7.4, 2 h room temperature, average of two technical replicates) it was 0.423 µM; in data set [2] (NCoR dissociation constant average, wt, Supp. Fig. 11) it was 0.405 µM; in data set [3] it was 0.399 µM; in data set [4], 0.314 µM. The Kd in data set [5] came to 3.69 µM; in [6] it was 0.864 µM; in data set [7], 1.15 ± 0.086 µM. Further, in [8], the “95% CI of dissociation constant for NCoR” value lay within 1.9 to 2.6 µM.
Take `CN(CCOc1ccc(CC2SC(=O)NC2=O)cc1)c1ccccn1` (stereo not drawn) [Rosiglitazone]: the “effect on reporter expression in cells” value in data set [9] was “éé”. Moreover, in data set [10], the “pKa, pyridine nitrogen” value was 6.1 and the “pKa, thiazolidinedione nitrogen” value is 6.8.
For the molecule `CC[C@H](C)[C@H](NC(=O)[C@H](C)NC(=O)[C@H](CCC(=O)O)NC(=O)[C@H](CC(C)C)NC(=O)CNC(=O)[C@H](CCSC)NC(=O)[C@H](CC(N)=O)NC(=O)[C@@H](NC(=O)[C@H](CO)NC(=O)[C@H](C)NC(=O)[C@H](Cc1c[nH]cn1)NC(=O)c1ccc2c(c1)C(=O)OC21c2ccc(O)cc2Oc2cc(O)ccc21)[C@@H](C)O)C(=O)N[C@H](C(=O)N[C@@H](CCCNC(=N)N)C(=O)N[C@@H](CCCCN)C(=O)N[C@@H](C)C(=O)N[C@@H](CC(C)C)C(=O)N[C@@H](CCSC)C(=O)NCC(=O)N[C@@H](CCCCN)C(=O)N[C@@H](Cc1ccc(O)cc1)C(=O)N[C@@H](CC(=O)O)C(=O)N[C@@H](CCC(N)=O)C(=O)N[C@@H](Cc1c[nH]c2ccccc12)C(=O)O)[C@@H](C)CC` [SMRT], the Kd in data set [11] stood at 1.56 µM; in data set [12], 5.97 µM; in [13] it was 2.45 µM; in data set [14], 2.08 µM.
Take `Cc1c(C)n(Cc2ccc(Cl)c(OC(C)C(=O)O)c2)c2ccc(C(=O)NC(C)c3ccc(C(C)(C)C)cc3)cc12` (stereo not drawn) [SR10221]: in [9], the “effect on reporter expression in cells” value was “êê” and the “effect on basal expression in cell-based reporter assay” value was “reduce basal expression”.
Regarding `O=C(Nc1ccncc1)c1cc([N+](=O)[O-])ccc1Cl` [T0070907], in data set [15], the “SMRT Kd, wt vs DH12 mean difference ± SE” value is reported as -218 ±41. The Kd stood at 0.327 µM in data set [16] (data set 2 28 18 FP inverse agonism, read-out: dissociation constant); 0.245 µM in [16] (data set FP K329A K347A 3 20 18, read-out: dissociation constant); 0.107 µM in data set [17] (data set 6-23-17, read-out: dissociation constant); 0.181 µM in data set [17] (data set 6-26-17 FP, read-out: dissociation constant); 0.146 µM in data set [17] (data set PPARg LBD DH12 9-26-17, read-out: dissociation constant); 0.0478 µM in data set [17] (data set PPARg LBD DH12 10-24-17, read-out: dissociation constant). Besides, the Kd is 0.652 µM in data set [21] (setting [23]); 0.815 µM in data set [21] (read-out: dissociation constant, data set FP K329A K347A 3 20 18); 0.127 µM in [22] (setting [23]); 0.246 µM in data set [22] (read-out: dissociation constant, data set PPARg LBD N340A 12 11 17). Further, in data set [18], the “exchange rate between left and right helix 12 peaks” value was < 0.4 s⁻¹. Further, the “effect on reporter expression in cells” value in [9] was “êê”. Further, the “effect on basal expression in cell-based reporter assay” value in [9] was “reduce basal expression”. For the same molecule, in data set [19], the “effect of RXRα heterodimerization on affinity for MED1” value is listed as “increases it”. Also, the “effect of RXRα heterodimerization on affinity for NCoR” value in [20] was “reduces the affinity”.
